Source: patent US20110190365A1, “Insecticidal 4-phenyl-1H-pyrazoles” (Bayer Crop Science AG, priority 2008, published 2011)

Test: log P by HPLC on a reversed-phase column (C18), EEC Directive 79/831 Annex V.A8
Assay type: physicochemical
Protocol: The stated log P values were determined in accordance with EEC Directive 79/831 Annex V.A8 by HPLC (High Performance Liquid Chromatography) using a reversed-phase column (C18).

[1] = HCOOH, Table 4, compounds of formula I-A-Q4
[2] = HPLC, reversed-phase C18, mobile phase with formic acid

SMILES	log P (HCOOH) (HCOOH)	also measured
Cc1cnc(CNC(=O)c2ccc(-n3nc(C(F)(F)F)c(-c4cc(Cl)cc(Cl)c4)c3N)cc2C)cn1 [I-A-Q2-265]	I-A-Q2-265: log P (HCOOH): 3.63	
Cc1cc(-n2nc(C(F)(F)F)c(-c3cccc(F)c3)c2N)ccc1C(=O)NCc1ccccn1 [I-A-Q2-354]	I-A-Q2-354: log P (HCOOH): 2.31	
Nc1c(-c2cc(Cl)cc(Cl)c2)c(C(F)(F)F)nn1-c1ccc(F)c(C(F)(F)F)c1 [I-A-Q4-105]		log P (HCOOH) [1]: I-A-Q4-105: log P (HCOOH): 5.25
Cc1cc(-n2nc(C(F)(F)F)c(-c3cccc(Br)c3)c2N)ccc1C(=O)NCc1ccccn1 [I-A-Q2-357]	I-A-Q2-357: log P (HCOOH): 2.72	
Nc1c(-c2cc(Cl)cc(Cl)c2)c(C(F)(F)F)nn1-c1ccc(C(=O)NCC(F)(F)C(F)F)c(C(F)(F)F)c1 [I-A-Q2-385]	I-A-Q2-385: log P (HCOOH): 4.60	
Cc1cc(-n2nc(C(F)(F)F)c(-c3cc(Cl)cc(Cl)c3)c2N)ccc1C(=O)NCc1ccc(Cl)nc1 [I-A-Q2-219]	I-A-Q2-219: log P (HCOOH): 4.05	
CC(NC(=O)c1ccc(-n2nc(C(F)(F)F)c(-c3cc(F)cc(Cl)c3)c2N)cc1)C(F)(F)F (centres unmarked) [I-A-Q2-084]	I-A-Q2-084: log P (HCOOH): 3.89	
Cc1cc(-n2nc(C(F)(F)F)c(-c3ccc(Cl)cc3)c2N)ccc1C(=O)NCC(F)(F)C(F)F [I-A-Q2-302]	I-A-Q2-302: log P (HCOOH): 3.61	
Nc1c(-c2ccc(Br)cc2)c(C(F)(F)F)nn1-c1ccc(Cl)cn1 [I-A-Q4-042]		log P (HCOOH) [1]: I-A-Q4-042: log P (HCOOH): 5.22
Cc1cc(-n2nc(C(F)(F)F)c(-c3cc(Cl)cc(Cl)c3)c2N)ccc1C(=O)NC(C)Cn1cccn1 (centres unmarked) [I-A-Q2-243]	I-A-Q2-243: log P (HCOOH): 3.78	
Cc1cc(-n2nc(C(F)(F)F)c(-c3cc(Cl)cc(Cl)c3)c2N)ccc1C(=O)NCC(F)(F)F [I-A-Q2-014]	I-A-Q2-014: log P (HCOOH): 4.34	
CNC(=O)c1ccc(-n2nc(C(F)(F)F)c(-c3cc(Cl)cc(Cl)c3)c2N)cc1 [I-A-Q2-193]	I-A-Q2-193: log P (HCOOH): 3.42	
CC(NC(=O)c1ccc(-n2nc(C(F)(F)F)c(-c3cccc(F)c3)c2N)cc1)C(F)(F)F (centres unmarked) [I-A-Q2-182]	I-A-Q2-182: log P (HCOOH): 3.33	
Cc1cc(-n2nc(C(F)(F)F)c(-c3cc(Cl)cc(Cl)c3)c2N)ccc1C(=O)N(Cc1ccccn1)C1CC1 [I-A-Q2-111]	I-A-Q2-111: log P (HCOOH): 4.17	
Cc1cc(-n2nc(C(F)(F)Oc3ccccc3)c(-c3cc(Cl)cc(C(F)(F)F)c3)c2N)ccc1C(=O)NCC(F)(F)C(F)F [I-A-Q2-299]	I-A-Q2-299: log P (HCOOH): 4.51	
Cc1cc(-n2nc(C(F)(F)F)c(-c3cc(Cl)cc(Cl)c3)c2N)ccc1C(=O)NCc1cccc(Cl)c1 [I-A-Q2-215]	I-A-Q2-215: log P (HCOOH): 4.76	
CCCc1nn(-c2ccc(C(=O)NCC(F)(F)C(F)F)c(C)c2)c(N)c1-c1ccc(Cl)cc1 [I-A-Q2-340]	I-A-Q2-340: log P (HCOOH): 3.56	
N#Cc1cc(-n2nc(C(F)(F)F)c(-c3cc(Cl)cc(Cl)c3)c2N)ccc1-n1cnc2ccccc21 [I-A-Q1-081]		log P (HCOOH) [2]: I-A-Q1-081: log P (HCOOH): 4.28
Nc1c(-c2ccc(Br)cc2)c(C(F)(F)F)nn1-c1ccc(C(=O)NC2CC2)cc1 [I-A-Q2-190]	I-A-Q2-190: log P (HCOOH): 3.15	
Cc1cc(-n2nc(C(F)(F)F)c(-c3ccc(I)cc3)c2N)ccc1C(=O)NCC(F)(F)C(F)F [I-A-Q2-313]	I-A-Q2-313: log P (HCOOH): 3.85	

SMILES	log P (HCOOH) (HCOOH)	also measured
Cc1cc(-n2nc(C(F)(F)F)c(-c3cc(Cl)cc(Cl)c3)c2N)ccc1C(=O)NCc1cn(C)cn1 [I-A-Q2-058]	I-A-Q2-058: log P (HCOOH): 1.94	
Cc1cc(-n2nc(C)c(-c3cc(F)ccc3F)c2N)ccc1C(=O)NCC(F)(F)C(F)F [I-A-Q2-332]	I-A-Q2-332: log P (HCOOH): 2.59	
Cc1cc(-n2nc(C(F)(F)F)c(-c3ccccc3C)c2N)ccc1C(=O)NCC(F)(F)C(F)F [I-A-Q2-317]	I-A-Q2-317: log P (HCOOH): 3.32	
Cc1cc(-n2nc(C(F)(F)F)c(-c3cc(Cl)cc(Cl)c3)c2Br)ccc1C(=O)NCc1ccccn1 [I-A-Q2-023]	I-A-Q2-023: log P (HCOOH): 4.91	
Nc1c(-c2cccc(F)c2)c(C(F)(F)F)nn1-c1ccc(C(=O)O)cc1 [I-A-Q4-097]		log P (HCOOH) [1]: I-A-Q4-097: log P (HCOOH): 2.88
Cc1cc(-n2nc(C(F)(F)F)c(-c3ccc(Cl)c(F)c3)c2N)ccc1C(=O)NCC(F)(F)C(F)F [I-A-Q2-310]	I-A-Q2-310: log P (HCOOH): 3.70	
CC(C)(CC(F)(F)F)NC(=O)c1ccc(-n2nc(C(F)(F)F)c(-c3cc(Cl)cc(Cl)c3)c2N)nc1 [I-A-Q2-099]	I-A-Q2-099: log P (HCOOH): 5.42	
Cc1cc(-n2nc(C(F)(F)F)c(-c3cc(Cl)cc(Cl)c3)c2N)ccc1C(=O)NCC(F)(F)C(F)F [I-A-Q2-035]	I-A-Q2-035: log P (HCOOH): 4.23	
Cc1cc(-n2nc(C(F)(F)c3ccc(C(F)(F)F)cc3)c(-c3cc(Cl)cc(C(F)(F)F)c3)c2N)ccc1C(=O)NCC(F)(F)C(F)F [I-A-Q2-289]	I-A-Q2-289: log P (HCOOH): 4.95	
Cc1cc(-n2nc(C(F)(F)F)c(-c3cc(Cl)c4c(c3)OCO4)c2N)ccc1C(=O)NCC(F)(F)C(F)F [I-A-Q2-293]	I-A-Q2-293: log P (HCOOH): 3.11	
Cc1cc(-n2nc(C(F)(F)F)c(-c3cc(Cl)cc(Cl)c3)c2N)ccc1C(=O)NC(C)(C)C [I-A-Q2-221]	I-A-Q2-221: log P (HCOOH): 4.51	
CC(NC(=O)c1ccc(-n2nc(C(F)(F)F)c(-c3cc(F)cc(Cl)c3)c2N)cc1)c1ccccn1 (centres unmarked) [I-A-Q2-088]	I-A-Q2-088: log P (HCOOH): 2.99	
Nc1c(-c2cc(Cl)cc(Cl)c2)c(C(F)(F)F)nn1-c1ccc(S(=O)(=O)NC2CC2)c(Cl)c1 [I-A-Q4-110]		log P (HCOOH) [1]: I-A-Q4-110: log P (HCOOH): 4.49
Cc1cc(-n2nc(C(F)(F)OC(F)(F)C(F)(F)OC(F)(F)F)c(-c3cc(Cl)cc(C(F)(F)F)c3)c2N)ccc1C(=O)NCC(F)(F)C(F)F [I-A-Q2-287]	I-A-Q2-287: log P (HCOOH): 5.33	
Nc1c(-c2ccc(Cl)c(Cl)c2)c(C(F)(F)F)nn1-c1ccc(C(=O)NCC(F)F)cc1 [I-A-Q2-159]	I-A-Q2-159: log P (HCOOH): 3.65	
Cc1cc(-n2nc(C(F)(F)F)c(-c3cc(Cl)cc(Cl)c3)c2N)ccc1C(=O)NC(C)c1ccccc1 (centres unmarked) [I-A-Q2-016]	I-A-Q2-016: log P (HCOOH): 4.79	
CC(=O)NCc1ccc(-n2nc(C(F)(F)F)c(-c3cc(Cl)cc(Cl)c3)c2N)cc1Cl [I-A-Q3-023]		log P (HCOOH) [2]: I-A-Q3-023: log P (HCOOH): 3.70
CSc1c(-c2cc(Cl)cc(Cl)c2)c(C(F)(F)F)nn1-c1ccc(C(=O)NCc2ncccn2)c(C)c1 [I-A-Q2-276]	I-A-Q2-276: log P (HCOOH): 4.50	
Cc1cc(-n2nc(C(C)C)c(-c3ccc(Cl)cc3)c2N)ccc1C(=O)NCc1ccccn1 [I-A-Q2-378]	I-A-Q2-378: log P (HCOOH): 2.61	
CC(NC(=O)c1ccc(-n2nc(C(F)(F)F)c(-c3ccc(Cl)cc3)c2N)cc1)C(F)(F)F (centres unmarked) [I-A-Q2-153]	I-A-Q2-153: log P (HCOOH): 3.89	

SMILES	log P (HCOOH) (HCOOH)	also measured
Cc1cc(-n2nc(C(F)(F)C(F)(F)F)c(-c3ccc(Cl)cc3)c2N)ccc1C(=O)NCC(F)(F)C(F)F [I-A-Q2-321]	I-A-Q2-321: log P (HCOOH): 4.00	
CC(C)NC(=O)c1ccc(-n2nc(C(F)(F)F)c(-c3ccc(Br)cc3)c2N)cc1 [I-A-Q2-187]	I-A-Q2-187: log P (HCOOH): 3.42	
Nc1c(-c2ccc(Cl)cc2Cl)c(C(F)(F)F)nn1-c1ccc(Cl)cn1 [I-A-Q4-044]		log P (HCOOH) [1]: I-A-Q4-044: log P (HCOOH): 5.02
CCNC(=O)c1ccc(-n2nc(C(F)(F)F)c(-c3cc(Cl)cc(Cl)c3)c2N)cc1 [I-A-Q2-142]	I-A-Q2-142: log P (HCOOH): 3.77	
Nc1c(Cl)c(C(F)(F)F)nn1-c1ccc(C(=O)O)cc1 [XI-A-043]	XI-A-043: log P (HCOOH): 2.34	
CC(NC(=O)c1ccc(-n2nc(C(F)(F)F)c(-c3cc(Cl)cc(Cl)c3)c2N)cc1)c1ccccn1 (centres unmarked) [I-A-Q2-147]	I-A-Q2-147: log P (HCOOH): 3.47	
Cc1cc(-n2nc(C(F)(F)Oc3ccc(Cl)cc3Cl)c(-c3cc(Cl)cc(C(F)(F)F)c3)c2N)ccc1C(=O)NCC(F)(F)C(F)F [I-A-Q2-295]	I-A-Q2-295: log P (HCOOH): 5.27	
Nc1c(-c2cccc(Br)c2)c(C(F)(F)F)nn1-c1ccc(C(=O)O)cc1 [I-A-Q4-091]		log P (HCOOH) [1]: I-A-Q4-091: log P (HCOOH): 3.29
Cc1nn(-c2ccc(-n3cncn3)c(C#N)c2)c(N)c1-c1ccc(Cl)c(Cl)c1 [I-A-Q1-025]		log P (HCOOH) [2]: I-A-Q1-025: log P (HCOOH): 3.02
O=C(NCC(F)(F)C(F)F)c1ccc(-n2cc(-c3cc(Cl)cc(Cl)c3)c(C(F)(F)F)n2)c2ccccc12 [I-B-Q2-021]		log P (HCOOH) (HCOOH, Table 6, compounds of formula I-B-Q2): I-B-Q2-021: log P (HCOOH): 4.58
Cc1cc(-n2nc(C)c(-c3c(F)cccc3F)c2N)ccc1C(=O)NCc1ccccn1 [I-A-Q2-369]	I-A-Q2-369: log P (HCOOH): 1.52	
Nc1c(-c2cc(F)cc(Cl)c2)c(C(F)(F)F)nn1-c1ccc(C(=O)O)cc1 [I-A-Q4-100]		log P (HCOOH) [1]: I-A-Q4-100: log P (HCOOH): 3.32
Cc1cc(-n2nc(C(F)(F)F)c(-c3cc(Cl)cc(Cl)c3)c2N)ccc1C(=O)NCC(C)O (centres unmarked) [I-A-Q2-262]	I-A-Q2-262: log P (HCOOH): 3.28	
Cc1cc(-n2nc(C(F)(F)F)c(-c3cc(Cl)cc(Cl)c3)c2N)ccc1C(=O)NC(C)c1ccc(Cl)nc1 (centres unmarked) [I-A-Q2-248]	I-A-Q2-248: log P (HCOOH): 4.34	
Nc1c(-c2cccc(F)c2)c(C(F)(F)F)nn1-c1ccc(C(=O)NCc2ccccn2)cc1 [I-A-Q2-185]	I-A-Q2-185: log P (HCOOH): 2.14	
Cc1nn(-c2ccc(C(=O)NC(C)C(F)(F)F)cc2)c(Br)c1-c1cccc(Cl)c1 (centres unmarked) [I-A-Q2-098]	I-A-Q2-098: log P (HCOOH): 4.36	
Cc1cc(-n2nc(C(F)(F)F)c(-c3ccc(C#N)cc3)c2N)ccc1C(=O)NCc1ccccn1 [I-A-Q2-349]	I-A-Q2-349: log P (HCOOH): 2.04	
N#Cc1cc(-n2nc(C(F)(F)F)c(-c3cc(Cl)cc(Cl)c3)c2N)ccc1-n1ccnc1 [I-A-Q1-076]		log P (HCOOH) [2]: I-A-Q1-076: log P (HCOOH): 2.98
Cc1cc(-n2nc(C(F)F)c(-c3ccc(F)cc3F)c2N)ccc1C(=O)NCC(F)(F)C(F)F [I-A-Q2-319]	I-A-Q2-319: log P (HCOOH): 2.80	
